Data set [1] relates to Rattus norvegicus. The data set is described as follows: Antiestrogenic activity in female Rattus norvegicus Wistar (rat) assessed as decrease in estradiol benzoate-induced uterine weight at 5 mg/kg, sc QD for 3 days relative to control. The class given is functional. Particulars: 72 h, route subcutaneous.
In data set [2] the test system is Rattus norvegicus. The data set is described as follows: Estrogenic activity in female Rattus norvegicus Wistar (rat)assessed as change in uterine weight at 5 mg/kg, sc QD for 3 days relative to control. To be noted: in vivo, 72 h.
In data set [3] the test system is MCF7. The data set is described as follows: Growth inhibition of Homo sapiens (human) MCF-7 cells at 10^-12 to 10^-7 M after 48 hr by MTT assay. Type of data set: functional.
In data set [4] the test system is MDA-MB-231. Type of data set: functional, Homo sapiens.
Description: Growth inhibition of Homo sapiens (human) MDA-MB-231 cells at 10^-12 to 10^-6 M after 48 hr by MTT assay
Data set [5] concerns Rattus norvegicus. The data set is described as follows: Antiestrogenic activity in female Rattus norvegicus Wistar (rat) assessed as decrease in estradiol benzoate-induced uterine weight at 25 mg/kg, sc QD for 3 days relative to control. The class given is functional. To be noted: 72 h, route subcutaneous.
Data set [6] concerns MCF7. The data set is described as follows: Growth inhibition of Homo sapiens (human) MCF-7 cell growth at 10^-6 M after 48 hr by MTT assay. Type of data set: functional, cell-based.
Data set [7] concerns HT-29. The data set is described as follows: Growth inhibition of Homo sapiens (human) HT-29 cells at 10^-12 to 10^-6 M after 48 hr by MTT assay. The class given is functional.
Data set [8] relates to MCF7. Description: Induction of Homo sapiens (human) MCF7 cell growth at 10^-6 M after 48 hr by MTT assay. To be noted: mcf7, 48 h, 1 µM. In general terms: Tetrazolium dyes change colour on reduction, which living cells bring about.
Data set [9] concerns Rattus norvegicus. Description: Estrogenic activity in female Rattus norvegicus Wistar (rat) assessed as change in uterine weight at 25 mg/kg, sc QD for 3 days relative to control. To be noted: in vivo, 72 h.
The target of data set [10] is T1, Aromatase (Rattus norvegicus, UniProt P22443).
T1 sequence (P22443 whole entry): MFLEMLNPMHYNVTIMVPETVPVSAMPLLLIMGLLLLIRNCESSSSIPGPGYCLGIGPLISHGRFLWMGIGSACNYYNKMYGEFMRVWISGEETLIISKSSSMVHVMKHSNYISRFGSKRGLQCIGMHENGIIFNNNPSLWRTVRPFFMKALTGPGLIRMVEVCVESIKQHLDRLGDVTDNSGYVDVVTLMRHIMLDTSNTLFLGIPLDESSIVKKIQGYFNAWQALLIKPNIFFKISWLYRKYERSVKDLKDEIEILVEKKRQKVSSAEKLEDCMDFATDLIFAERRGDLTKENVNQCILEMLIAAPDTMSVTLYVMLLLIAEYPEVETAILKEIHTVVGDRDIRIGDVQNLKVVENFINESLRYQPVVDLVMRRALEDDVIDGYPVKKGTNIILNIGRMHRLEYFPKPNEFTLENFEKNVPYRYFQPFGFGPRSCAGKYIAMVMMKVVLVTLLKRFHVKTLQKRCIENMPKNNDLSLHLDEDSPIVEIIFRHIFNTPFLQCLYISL
The data set is described as follows: Inhibition of aromatase in Rattus norvegicus (rat) PMSG-treated denucleated ovarian fraction using testosterone as substrate at 10 uM after 15 min by radioimmuno assay. To be noted: 0.25 h.

Data set [11] concerns the target T1, Aromatase. The data set is described as follows: Inhibition of aromatase in Rattus norvegicus (rat) PMSG-treated denucleated ovarian fraction using testosterone as substrate at 50 uM after 15 min by radioimmuno assay. To be noted: 0.25 h.
Data set [12] relates to MCF7. The data set is described as follows: Growth inhibition of Homo sapiens (human) MCF-7 cells at 10^-12 to 10^-6 M after 48 hr by MTT assay. Type of data set: functional.
Data set [13] in a line: Growth inhibition of Homo sapiens (human) MRC5 cells at 10^-12 to 10^-6 M after 48 hr by MTT assay. Particulars: read-out: GI. Type of data set: cell-based.
Data set [14] has as its system HT-29. Description: Growth inhibition of Homo sapiens (human) HT-29 cells at 10^-12 to 10^-9 M after 48 hr by MTT assay. The class given is functional, cell-based.
In data set [15] the test system is MRC5. Description: Cytotoxicity against Homo sapiens (human) MRC5 cells at 10^-12 to 10^-6 M after 48 hr by MTT assay. The class given is cell-based. Particulars: mrc5, 48 h.
The test system of data set [16] is MCF7. The data set is described as follows: Growth inhibition of Homo sapiens (human) MCF-7 cells at 10^-12 to 10^-9 M after 48 hr by MTT assay. The class given is functional.

Active and inactive are the calls of the source. The calls are words filed in the database; no cut-off is given here.

Take `C[C@]1(CO)CC[C@@H]2c3ccc(OCc4ccccc4)cc3CC[C@H]2[C@@H]1CC#N`: the inhibition in vivo at 5 mg/kg in [1] is 31.5%. In addition, the Activity in [2] was 0.71%.

In the case of `CC/C(=C(\c1ccccc1)c1ccc(OCCN(C)C)cc1)c1ccccc1.O=C(O)CC(O)(CC(=O)O)C(=O)O` [TAMOXIFEN CITRATE], the “growth inhibition (GI)” value in data set [3] and in data set [7] was “Active” each time. Also, in data set [4], the “growth inhibition (GI)” value was determined as 30%. Also, the Activity in [2] is listed as 39.78%; in data set [8] it was “Non-toxic”; in data set [9] it was 39.36%. In addition, in data set [5], the inhibition in vivo at 25 mg/kg stood at 62.8%. For the same compound, the “growth inhibition (GI)” value in [6] is “inactive”.

`C[C@]1(COC(=O)CCC(=O)O)CC[C@@H]2c3ccc(OCc4ccccc4)cc3CC[C@H]2[C@@H]1CC#N`: the inhibition at 10 µM in data set [10] worked out at 7.02%. The inhibition in vivo at 5 mg/kg in [1] came out at 2.82%. Further, the inhibition at 50 µM in [11] turned out to be 21.2%. Moreover, the “growth inhibition (GI)” value in data set [4], in data set [12] and in [7] was 40% throughout. Moreover, in [2], the Activity is -2.28%. Further, in data set [13], the inhibition at 48 h is 40%.

For `C[C@]1(COC(=O)CCCC(=O)O)CC[C@@H]2c3ccc(OCc4ccccc4)cc3CC[C@H]2[C@@H]1CC#N`, the “growth inhibition (GI)” value in [14] is “Active”. Also, the inhibition at 10 µM in data set [10] stood at 17.9%. Further, the inhibition in vivo at 5 mg/kg in data set [1] stood at 8.5%. For the same compound, the inhibition at 50 µM in data set [11] was determined as 88.2%. In addition, the Activity was -3.92% in data set [2] and “Non-toxic” in data set [15]. Besides, the “growth inhibition (GI)” value in data set [16] came out at 20%.

On to `C[C@]1(COC(=O)CCCC(=O)O)CC[C@@H]2c3ccc(O)cc3CC[C@H]2[C@@H]1CC#N`, for which the inhibition at 10 µM in data set [10] was determined as 16.6%. Also, in data set [1], the inhibition in vivo at 5 mg/kg turned out to be 13.8%. For the same compound, the inhibition at 50 µM in data set [11] is 67.3%. Further, the “growth inhibition (GI)” value in data set [4], in data set [12] and in [7] was 10% in each case. For the same compound, the Activity in data set [2] is -9.63%. The inhibition at 48 h in data set [13] worked out at 10%.

As for `C[C@]1(COC(=O)CCC(=O)O)CC[C@@H]2c3ccc(O)cc3CC[C@H]2[C@@H]1CC#N`, the inhibition at 10 µM in data set [10] is -10.6%. Moreover, the inhibition in vivo at 5 mg/kg in data set [1] was 41.6%. Besides, in data set [11], the inhibition at 50 µM was 0.1%. The “growth inhibition (GI)” value in data set [4], in [12] and in [7] was 30% throughout. The Activity in data set [2] was -6.78%; in [9], 6.42%. Further, the inhibition in vivo at 25 mg/kg in [5] came out at 11.9%.

Regarding `C[C@]1(CO)CC[C@@H]2c3ccc(O)cc3CC[C@H]2[C@@H]1CC#N`, the inhibition in vivo at 5 mg/kg in data set [1] worked out at 21.1%. The Activity in data set [2] is given as -2.06%.

Turning to `C[C@]12CC[C@@H]3c4ccc(O)cc4CC[C@H]3[C@@H]1CC[C@@H]2O` [ESTRADIOL], the “growth inhibition (GI)” value in data set [3] is given as 10%; in data set [7], 20%. Moreover, in data set [6], the “growth inhibition (GI)” value is “inactive”. Moreover, the Activity result in data set [8] is listed as “Non-toxic”.

By inhibition in vivo is commonly meant the drop in the measured response relative to a control, in per cent.

For the origin of these results see ChEMBL document CHEMBL3044577, “Evaluation of biological activity of new hemiesters of 17-hydroxy-16,17-secoestra-1,3,5(10)-triene-16-nitrile” (Med Chem Res, 2011).
